The record followed here is patent US8536208B2, “Antifungal composition” (Basilea Pharmaceutica AG, priority 2007, dated 2013).

The nature of the data set: Single dose bioavailability study on fasted subjects. Particulars: human, in vivo, Galenical formulation Example 4 (composition 2.3). The procedure:
A single dose bioavailability study is conducted on N fasted subjects using the composition of this Example (N=7, dose of compound I-A 433.3 mg corresponding to 400 mg free base of formula I-B), and the same amount in powder form filled into hard capsules, (N=6). BAL8557, a water-soluble prodrug of the compound of formula I-B according to EP-A-1 280 795, is used as a standard (capsule comprising BAL 8557 in powder form in an amount corresponding to 400 mg free base of formula I-B; N=3).

Where [1] appears, read: single oral dose 433.3 mg I-A (400 mg free base I-B), N=7.

Take `C[C@@H](c1nc(-c2ccc(C#N)cc2)cs1)[C@](O)(Cn1cncn1)c1cc(F)ccc1F.Cl` [Compound I-A]: where the note is “433.3 mg, single oral dose equal to 400 mg free base I-B, BAL 8557 as standard, read-out: Frel (relative bioavailability)”, the bioavailability (commonly dose-corrected exposure relative to a reference, in per cent) was 90%. In addition, under setting [1], the peak concentration (Cmax) (commonly the highest concentration seen after dosing) stood at 4410 ng/mL; the time of peak concentration (Tmax) (in general, the time at which the peak concentration occurs) is 1.5 h; the half-life (usually the time in which the quantity being followed falls by half) was 88 h. Also, the AUC (single oral dose 433.3 mg I-A (400 mg free base I-B), N=7, read-out: AUCinfinite) stood at 193 µg·h/mL.
